Experimental data reported in patent publication EP3694851B1, “ENVIRONMENTALLY DEGRADABLE QUINOLONE ANTIBIOTICS HAVING A HEMIAMINAL STRUCTURAL UNIT” (priority 2017, dated 2019).
In brackets after ≈: the same amount, converted by molar mass.

Legend:
[1] = test system: E. faecalis ATCC 29121, P. aeruginosa ATCC 27853, S. aureus ATCC 29213, E. coli ATCC 25922, S. aureus ATCC 43300, K. pneumoniae ATCC 700603, A. baumanii ATCC …; experiment: Minimal inhibitory concentrations in various bacterial strains (broth microdilution); type: cell-based
Source text: Minimale Hemmkonzentrationen in verschiedenen Bakterienstämmen: Die antibiotische Aktivität wurde mittels Durchführung der Broth-Mikroverdünnungsmethode ermittelt (Cockerill et al., 2012, siehe Literatur). Es wurden die folgenden Bakterienstämme verwendet: Staphylococcus aureus (ATCC 29213), Enterococcus faecalis (ATCC 29212), Escherichia coli (ATCC 25922) und Pseudomonas aeruginosa (ATCC 27853), sowie S. aureus (ATCC 43300), K. pneumoniae (ATCC 700603), A. baumanii (ATCC 19606). Die Bestimmungen der minimalen Hemmkonzentrationen wurden durch zwei unabhängige Laboratorien durchgeführt.
Bakterienzellen wurden bei einer Zelldichte von 2 - 8 × 10^5 cfu/ml in 200 µl Mueller-Hinton-Brothmedium verdünnt. Die Ansätze enthielten eine Verdünnungsreihe der Testsubstanzen. Diese inokulierten 96-well Platten wurden für 18 h bei 36°C inkubiert. Die minimale Hemmkonzentration wurde ermittelt durch visuelle Abschätzung der niedrigsten Konzentration, die die Bakterien vollständig gehemmt hatte.

[2] = test system: Humane embryonale Nierenzellen (HEK293); experiment: Cytotoxicity test in HEK293 cells; type: cell-based, human; conditions: Figure 3
Procedure: Humane embryonale Nierenzellen (HEK293) wurden in 384-well-Platten mit einer Dichte von 6000 Zellen/well in einem finalen Volumen von 50 µl mit der gewünschten Konzentration der Testsubstanz ausgesät. DMEM mit 10% fötalem Rinderserum (FBS) wurde als Wachstumsmedium verwendet. Die Zellen wurden zusammen mit den Testsubstanzen für 20 h bei 37 °C mit 5% COz inkubiert.

[3] = test system: Escherichia coli K12 ATCC 23716; experiment: Growth inhibition in E. coli (96-well plate, 4 h at 37°C, absorption at 600 nm); type: cell-based; conditions: ATCC23716, 4 h, E. coli (ATCC 23716), activity in the range of medium-strength fluoroquinolones, Figure 4
Procedure: Escherichia coli K12 ATCC 23716 wurde von DSMZ GmbH (Braunschweig, Germany) erhalten.
Die Testsubstanzen wurden in Wasser verdünnt und auf einer 96-well-Platte zur Bakteriensuspension (in 2x Bakterienmedium (10 g Pepton and 6 g Fleischextrakt in 1 Liter)) gegeben, so dass die Endkonzentration des Mediums 1x war. Die Platte wurde 4h bei 37°C inkubiert. Die Zelldichte wurde photometrisch durch Messung der Absorption bei 600 nm bestimmt. Die Wachstumshemmung in Prozent der unbehandelten Kontrollen gegen die Konzentration der Testsubstanz aufgetragen.

[4] = Abiotic hydrolysis (pH-dependent, phosphate-buffered saline, HPLC); conditions: for Abspaltung des labilen Linkers: Figures 6a and 6b; for Abbau des Hemiaminal-Restes: within 7 days
Procedure: Der pH-Wert wurde auf pH 6, pH 7,4 oder pH 9 eingestellt. Die Ansätze wurden bei 37 °C für pH 6 und 7,4 und bei Raumtemperatur für pH 9 unter Schütteln (250 rpm) für 28 Tage inkubiert. An Tag 0, 1, 7, 14, 21 und 28 wurden Proben (700µL) für die HPLC Analyse entnommen. Der Quotient der Ausgangskonzentration co durch die Konzentration am jeweiligen Zeitpunkt (ct) wurde kalkuliert und als natürlicher Logarithmus gegen die Inkubationszeit aufgetragen.
Eine NUCLEODUR® RP-C18 (CC 125/4 100-5µm C18 ec) Säule und mobile Phasen bestehend aus 0.1 % Ameisensäure in hochreinem Wasser (CH2O2: Solution A) and 100 % Acetonitril (CH3CN: Solution B) wurden verwendet. Die Flußrate wurde auf 0.5 mL min^-1 eingestellt. Die Temperatur des Säulenofens wurde auf 25 °C eingestellt und das Injektionsvolumen betrug 10 µL. […] Die Testsubstanzen wurden durch einen UV/Vis Detektor bei 270 nm detektiert. Die Fließgradientenmethode wurde angewendet wie in Tabelle 1 aufgelistet. Tabelle 1 : Fließgradientenbedingungen zur chromatographischen Analyse der Testsubstanzen

[5] = Stability test at low pH (Marbofloxacin); type: physicochemical
[6] = test system: Vibrio fischeri NRRL-B-11177; experiment: Luminescence inhibition in V. fischeri (luminescent bacteria test); type: cell-based; conditions: after cleavage of the linker, compared with Verbindung 1; Figure 5
Source text: Die antibiotische Aktivität in V. fischeri wurden in einem Leuchtbakterientest (LBT) mit Vibrio fischeri NRRL-B-11177 (Hach-Lange GmbH, Düsseldorf, Germany) untersucht. Die Durchführung des LBT erfolgte nach dem modifizierten Protokoll von Menz et al. (2013), siehe Literaturliste.

In the case of `O=C(O)c1cn(C2CCCO2)c2cc(N3CCNCC3)c(F)cc2c1=O` (stereo not drawn) [Verbindung 1], the “Aktivität in anderen pathogenen Bakterien” value ([1]; other pathogenic bacteria, compared with quinolone generations) is reported as “über den Chinolonen der ersten Generation, aber unterhalb etablierter Fluorchinolone der zweiten Generation”, the “antibakterielle Aktivität” value ([1]; strains of E. coli, K. pneumoniae, P. aeruginosa and V. fischeri, compared with medium-strength fluoroquinolones) is reported as “zu mittelstarken Fluorchinolonen eine vergleichbare antibakterielle Aktivität” and the “Zytotoxizität in humanen Zellen (HEK 293)” value [2] is reported as “keine Hinweise auf einen Zytotoxizität”. For the same molecule, the MIC [3] was 0.1 to 1 µg/mL (≈ 0.277 to 2.77 µM), the “Abspaltung des labilen Linkers” value ([4]; at low pH) was “schnell” and the “Abbau des Hemiaminal-Restes” value ([4]; low pH of four (e.g. in urine)) was “zum größten Teil abgebaut”. For the same molecule, the “Abbau des Hemiaminal-Restes” value ([4]; physiological conditions (pH= 7,4)) was “nur langsam abgebaut” and the “Abspaltung des labilen Linkers” value ([4]; under physiological conditions) was “langsam”.

For `CN1CCN(c2c(F)cc3c(=O)c(C(=O)O)cn4c3c2OCN4C)CC1` [Marbofloxacin], the “Instabilität bei niedrigem pH” value [5] was “kaum Instabilität beobachtet”.

With `O=C(O)c1cnc2cc(N3CCNCC3)c(F)cc2c1O` [Cip-d-CP, reference compound] the “antibiotische Aktivität (MHK) im Vergleich zur Ausgangssubstanz” value ([1]; fragment after cleavage of the linker compared with Verbindung 1, Figures 2 and 3) was “deutlich schwächer aktiv als die Ausgangssubstanz”, the “Instabilität unter den gewählten pH-Bedingungen” value ([4]; chosen pH conditions (pH 6, pH 7,4 at 37°C; pH 9 at room temperature; 28 days)) was “Weder das verbleibende Fragment noch die Ausgangssubstanz Ciprofloxacin waren unter den gewählten pH-Bedingungen instabil” and the “antibiotische Aktivität in V. fischeri (Leuchthemmung)” value [6] was “deutliche Abschwächung der antibiotischen Aktivität nach Abspaltung des Linkers”.
